In patent publication US8791141B2, “Organic compounds” (Novartis AG, priority 2008, dated 2014):
Structures can show the parent of a compound that is named as a salt.

Assays:
[1] = molecular target: T1, CYP11B2 (aldosterone synthase) (Homo sapiens, UniProt P19099); assay: Inhibition of aldosterone secretion in NCI-H295R cells; type: cell-based; conditions: human adrenocortical carcinoma NCI-H295R cells, 24 hours with cell stimulant
T1 construct: the NCI-H295R cells have CYP11B2 (aldosterone synthase) and CYP11B1 (steroid 11-hydroxylase); host or cells: NCI-H295R
T1 sequence (P19099 25-503): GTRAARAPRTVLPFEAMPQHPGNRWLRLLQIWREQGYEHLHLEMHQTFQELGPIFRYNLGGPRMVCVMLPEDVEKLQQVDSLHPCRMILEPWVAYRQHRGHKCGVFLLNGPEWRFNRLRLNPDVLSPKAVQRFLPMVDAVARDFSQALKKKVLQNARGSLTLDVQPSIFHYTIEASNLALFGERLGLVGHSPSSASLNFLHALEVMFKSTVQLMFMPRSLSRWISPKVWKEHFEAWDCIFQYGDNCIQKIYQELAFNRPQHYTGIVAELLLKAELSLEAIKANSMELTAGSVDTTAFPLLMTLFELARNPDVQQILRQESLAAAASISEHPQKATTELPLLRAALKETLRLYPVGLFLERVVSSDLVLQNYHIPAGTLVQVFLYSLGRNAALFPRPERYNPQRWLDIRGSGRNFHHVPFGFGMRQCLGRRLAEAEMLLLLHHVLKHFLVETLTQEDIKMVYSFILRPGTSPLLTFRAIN
From the text: (§1) The activities of a compound according to the present invention can be assessed by the following in vitro method well-described in the art.
(§2) In particular, the inhibition of aldosterone and cortisol secretion in vitro can be determined by the following assay.
(§3) The cell line NCI-H295R was originally isolated from an adrenocortical carcinoma and has been characterized in the literature through the stimulable secretion of steroid hormones and the presence of the enzymes essential for steroidogenesis. The cells show the physiological property of zonally undifferentiated human foetal adrenocortical cells which, however, have the capacity to produce the steroid hormones which are formed in the three phenotypically distinguishable zones in the adult adrenal cortex. Thus, the NCI-H295R cells have CYP11B2 (aldosterone synthase) and CYP11B1 (steroid 11-hydroxylase).
(§4) The human adrenocortical carcinoma NCI-H295R cell line is obtained from American Type Culture Collection (Manassas, Va.). Insulin/transferrin/selenium (ITS)-A supplement (100×), DMEM/F-12, antibiotic/antimycotic (100×), and fetal calf serum (FCS) are purchased from Invitrogen (Carlsbad, Calif.). Anti-mouse PVT scintillation proximity assay (SPA) beads and NBS 96-well plates are obtained from Amersham (Piscataway, N.J.) and Corning (Acton, Mass.), respectively. Clear bottom 96-well flat bottom plates are purchased from Costar (Corning, N.Y.). Aldosterone and angiotensin (Ang II) are purchased from Sigma (St. Louis, Mo.). D[1,2,6,7-3H(N)]aldosterone and [1,2,6,7-3H(N)]cortisol are acquired from PerkinElmer (Boston, Mass.). Nu-serum is a product of BD Biosciences (Franklin Lakes, N.J.).
(§5) For in vitro measurement of aldosterone and cortisol activity, human adrenocortical carcinoma NCI-H295R cells are seeded in NBS 96-well plates at a density of 25,000 cells/well in 100 μL of a growth medium containing DMEM/F12 supplemented with 10% FCS, 2.5% Nu-serum, 1 μg ITS/ml, and 1× antibiotic/antimycotic. The medium is changed after culturing for 3 days at 37° C. under an atmosphere of 5% CO2/95% air. On the following day, cells are rinsed with 100 μL of DMEM/F12 and incubated in quadruplicate wells at 37° C. for 24 hours with 100 μL of treatment medium containing a cell stimulant and a compound at different concentrations. […] Cell stimulants which can be used are angiotensin-II (1 micromolar), potassium ions (16 millimolar), forskolin (10 micromolar) or a combination of two stimulants. At the end of incubation, the excretion of aldosterone and cortisol into the culture medium can be detected and quantified by commercially available, specific monoclonal antibodies in radioimmunoassays in accordance with the manufacturer's instructions.
(§6) Measurement of aldosterone can also be performed using a 96-well plate format. Each test sample is incubated with 0.02 μCi of D[1,2,6,7-3H(N)]aldosterone and 0.3 μg of anti-aldosterone antibody in phosphate-buffered saline (PBS) containing 0.1% Triton X-100, 0.1% bovine serum albumin, and 12% glycerol in a total volume of 200 μL at room temperature for 1 hour. Anti-mouse PVT SPA beads (50 μL) are then added to each well and incubated overnight at room temperature prior to counting in a Microbeta plate counter. The amount of aldosterone in each sample is calculated by comparing with a standard curve generated using known quantities of the hormone. Measurement of cortisol can be performed in a manner similar to that of aldosterone, except that [1,2,6,7-3H(N)]cortisol is used.
(§7) Inhibition of the release of a steroid can be used as a measure of the respective enzyme inhibition by the added test compounds. The dose-dependent inhibition of enzymatic activity by a compound is calculated by means of an inhibition plot which is characterized by an IC50. […] The inhibition plot is calculated by fitting a 4-parameter logistic function to the raw data points using the least squares method.

[2] = molecular target: T2, CYP11B1 (steroid 11-hydroxylase) (Homo sapiens, UniProt P15538); assay: Inhibition of cortisol secretion in NCI-H295R cells; type: cell-based; conditions: human adrenocortical carcinoma NCI-H295R cells, 24 hours with cell stimulant
T2 construct: the NCI-H295R cells have CYP11B2 (aldosterone synthase) and CYP11B1 (steroid 11-hydroxylase); host or cells: NCI-H295R
T2 sequence (P15538 25-503): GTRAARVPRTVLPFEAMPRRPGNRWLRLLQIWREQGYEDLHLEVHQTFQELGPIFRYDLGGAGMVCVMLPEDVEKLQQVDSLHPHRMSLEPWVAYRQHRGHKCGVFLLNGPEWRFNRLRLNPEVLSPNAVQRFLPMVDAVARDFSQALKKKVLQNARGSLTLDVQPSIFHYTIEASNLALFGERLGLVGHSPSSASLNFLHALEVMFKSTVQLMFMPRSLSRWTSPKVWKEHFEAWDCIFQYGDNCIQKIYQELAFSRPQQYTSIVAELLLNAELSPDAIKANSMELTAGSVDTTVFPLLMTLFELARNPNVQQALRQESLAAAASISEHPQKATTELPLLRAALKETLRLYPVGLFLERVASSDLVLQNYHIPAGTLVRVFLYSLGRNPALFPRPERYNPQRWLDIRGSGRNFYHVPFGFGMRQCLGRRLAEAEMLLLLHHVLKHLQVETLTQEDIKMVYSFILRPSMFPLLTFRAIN
From the text: as §1, §2, §3, §4, §5, §6, §7

SMILES | IC50 [1] [nM] | IC50 [2] [nM]
Cc1c(-c2cccnc2)[nH]c2ccc(C#N)cc12 [Example 6, 3-Methyl-2-pyridin-3-yl-1H-indole-5-carbonitrile] | 1 | 7
Cc1c(-c2cccnc2)n(Cc2cccc(C#N)c2)c2cc(F)ccc12 [Example 15, 3-(6-Fluoro-3-methyl-2-pyridin-3-yl-1H-indol-1-ylmethyl)-benzonitrile hydrochloride] | 27 | 447
Cc1c(-c2cccnc2)n(Cc2ccc(C(=O)O)cc2)c2cccc(F)c12 [Example 33, 4-(4-Fluoro-3-methyl-2-pyridin-3-yl-1H-indol-1-ylmethyl)-benzoic acid] | 14 | 662
N#Cc1cccc(C(=O)n2c(-c3cccnc3)cc3cc(C#N)ccc32)c1 [Example 42, 1-(3-Cyano-benzoyl)-2-pyridin-3-yl-1H-indole-5-carbonitrile] | 30 | 600
Cc1c(-c2cccnc2)n(COC(=O)C(C)(C)C)c2ccc(Cl)cc12 [Example 65, 2,2-Dimethyl-propionic acid 5-chloro-3-methyl-2-pyridin-3-yl-indol-1-ylmethyl ester] | 10 | 240
COc1ccncc1-c1cc2cc(C#N)ccc2[nH]1 [Example 90, 2-(4-Methoxy-pyridin-3-yl)-1H-indole-5-carbonitrile] | 40 | 400
COc1cncc(-c2cc3ccccc3n2C)c1 [Example 101, 2-(5-Methoxy-pyridin-3-yl)-1-methyl-1H-indole] | 2 | 37
Cn1c(-c2cnccc2CO)cc2ccccc21 [Example 106, [3-(1-Methyl-1H-indol-2-yl)-pyridin-4-yl]-methanol] | 85 | 530
Cn1c(-c2cnccc2Cl)cc2ccccc21 [Example 107, 2-(4-Chloro-pyridin-3-yl)-1-methyl-1H-indole] | 9 | 220
Cn1c(-c2cncc(Cl)c2)c(C#N)c2ccccc21 [Example 123, 2-(5-Chloro-pyridin-3-yl)-1-methyl-1H-indole-3-carbonitrile] | 78 | 650
Cn1c(-c2cncc(OS(C)(=O)=O)c2)c(C#N)c2ccccc21 [Example 138, Methanesulfonic acid 5-(3-cyano-1-methyl-1H-indol-2-yl)-pyridin-3-yl ester] | 43 | 326
Cn1c(-c2cncc(CN3CCN(S(C)(=O)=O)CC3)c2)c(C#N)c2ccc(Cl)cc21 [Example 180, 6-Chloro-2-[5-(4-methanesulfonyl-piperazin-1-ylmethyl)-pyridin-3-yl]-1-methyl-1H-indole-3-carbonitrile] | 2 | 3
CC(C)S(=O)(=O)NCc1cncc(-c2c(C#N)c3ccc(Cl)cc3n2C)c1 [Example 186, Propane-2-sulfonic acid [5-(6-chloro-3-cyano-1-methyl-1H-indol-2-yl)-pyridin-3-ylmethyl]amide] | 21 | 390
COCCOC(=O)NCc1cncc(-c2c(C#N)c3ccc(Cl)cc3n2C)c1 [Example 192] | 4 | 20
CC(C)NC(=O)NCc1cncc(-c2c(C#N)c3ccc(Cl)cc3n2C)c1 [Example 196, 1-[5-(6-Chloro-3-cyano-1-methyl-1H-indol-2-yl)-pyridin-3-ylmethyl]-3-isopropyl-urea] | 3 | 19
CCS(=O)(=O)NCc1cncc(-c2cc3ccc(Cl)cc3n2C)c1 [Example 206, N-[5-(6-Chloro-1-methyl-1H-indol-2-yl)-pyridin-3-ylmethyl]-ethanesulfonamide] | 2 | 213
Cn1c(-c2cncc(CNS(=O)(=O)CC(F)(F)F)c2)cc2ccc(Cl)cc21 [Example 209, 2,2,2-Trifluoro-ethanesulfonic acid [5-(6-chloro-1-methyl-1H-indol-2-yl)-pyridin-3-ylmethyl]-amide] | 23 | 788
